Source: US20220313777A1, “INHALED DELIVERY OF PEPTIDE MIMICS OF CXCL10 FOR TARGETED ANTI-FIBROTIC THERAPY” (University of Pittsburgh - Of the Commonwealth System of …, priority 2019, published 2022)

Assays:
[1] = test system: primary lung fibroblasts from scleroderma patients; assay: RT-qPCR of pro-fibrotic mRNAs in TGF-β-treated primary lung fibroblasts; type: cell-based, human; conditions: peptide 10 ng/mL plus TGF-β 10 ng/mL, 24 hours, delta-delta Ct, GAPDH housekeeping
Experimental: Primary lung fibroblasts from scleroderma patients were treated with TGF-β alone, or with IP-10-1 (SEQ ID NO: 2; FIGS. 1A-1C), IP-10-2 (SEQ ID NO: 3; FIGS. 1D-1F), or IP-10-3 (SEQ ID NO: 4; FIGS. 1G-1I) peptide (10 ng/mL) in the presence or absence of TGF-β (10 ng/mL) for 24 hours and then analyzed by RT-qPCR for the fibrotic ECM markers tenascin C (FIGS. 1A, 1D, 1G), collagen 1 (FIGS. 1B, 1E, 1H) and fibronectin (FIGS. 1C, […], 1I). Treatment with TGF-β alone induced expression of mRNAs for tenascin C (TNC), collagen 1 (COL1A1), and fibronectin (FN1) in primary lung fibroblasts. When cells were treated with an IP-10 peptide in combination with TGF-β, the IP-10 peptides reduced or prevented induction in mRNA expression of TNC, COL1A1, and FN1.
Primary lung fibroblasts from scleroderma patients were plated in 6-well plates in complete medium and incubated overnight. The next day, the medium was changed to quiescent medium and the cells were incubated in this medium for 24 hours. The following day, cells were left untreated, treated with 10 ng/mL of IP-10-1 (SEQ ID NO: 2), IP-10-2 (SEQ ID NO: 3) or IP-10-3 (SEQ ID NO: 4) peptide, treated with 10 ng/mL TGF-β, or treated with the combination of peptide and TGF-β for 24 hours. Total RNA was extracted using the Qiagen miRNeasy kit (Qiagen) and treated with DNase1, according to the manufacturer's instructions. RNA was then quantified and converted to cDNA using the Clontech RNA to cDNA EcoDry Double Primed Premix (Takara). qPCR was performed using PowerUp Sybr Green (Invitrogen) on an Applied Biosystems Quant Studio 3 instrument. Primers were from IDT and were designed using IDT Primer Quest and NCBI Primer Blast tools. The delta-delta Ct method was used to determine relative expression of the pro-fibrotic mRNAs for tenascin C (TNC), collagen 1 (COL1A1), and fibronectin (FN1). GAPDH was used as a housekeeping gene.

CXCR3B isoform = target: T1, CXCR3B isoform (Homo sapiens, UniProt P49682); conditions: described in WO 2013/032853 and WO 2015/112505; cited from earlier work
T1 construct: host or cells: dermal endothelial cells (as described in the cited PCT publications)
T1 sequence (P49682 1-415 isoform P49682-2): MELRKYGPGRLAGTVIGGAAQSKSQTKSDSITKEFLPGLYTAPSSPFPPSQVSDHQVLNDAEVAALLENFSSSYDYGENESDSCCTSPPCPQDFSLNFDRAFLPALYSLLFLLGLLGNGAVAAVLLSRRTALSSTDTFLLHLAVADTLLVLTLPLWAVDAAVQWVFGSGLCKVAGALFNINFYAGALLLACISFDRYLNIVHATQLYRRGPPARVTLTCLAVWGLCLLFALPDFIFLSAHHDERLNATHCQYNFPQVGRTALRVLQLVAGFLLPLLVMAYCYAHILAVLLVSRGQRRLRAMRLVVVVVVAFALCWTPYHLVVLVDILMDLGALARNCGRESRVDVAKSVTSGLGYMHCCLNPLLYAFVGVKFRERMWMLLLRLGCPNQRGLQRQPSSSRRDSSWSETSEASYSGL

angiogenesis = conditions: earlier work, not tested in anti-fibrotic applications; cited from earlier work

Sequence	expression of collagen 1 (COL1A1) mRNA relative to treatment with TGF-β alone [1]	expression of fibronectin (FN1) mRNA relative to treatment with TGF-β alone [1]	expression of tenascin C (TNC) mRNA relative to treatment with TGF-β alone [1]	activation of the CXCR3B isoform (CXCR3B isoform)	inhibition of angiogenesis (angiogenesis)
FAKAIKNFAKAVAKFA [IP-10-3, CXCL10 (IP-10) peptide variant]	significantly reduced or prevented	significantly reduced or prevented	significantly reduced or prevented		
PESKAIKNLLKAVSKEMSKRSP [IP-10p, CXCL10 peptide consisting of the α-helical domain (residues 77-98 of human CXCL10)]				activates the CXCR3B isoform	able to inhibit angiogenesis
PESKVIKNLLKVASKERSKRSP [IP-10-1, CXCL10 (IP-10) peptide variant]	significantly reduced or prevented	significantly reduced or prevented	significantly reduced or prevented		
PESRVIKNLLRVVSKEKSRRSP [IP-10-2, CXCL10 (IP-10) peptide variant]	significantly reduced or prevented	significantly reduced or prevented	significantly reduced or prevented		
